Laboratory results from patent publication US10072038B2, “Crystal of ammonium N-acetylneuraminate anhydrate, and process for producing same” (KYOWA HAKKO BIO CO., LTD., priority 2015, dated 2018).
One block for each compound: values may come before it.

How the values were obtained:
[1] = Degree of coloration when stored in a closed system at 60° C. (transmittance at 430 nm); type: physicochemical; details: for Transmittance T % 430 nm: stored in closed system at 60° C., solution 100 g/L in terms of an anhydrate, 1 cm
Protocol: With respect to the crystal of NeuAc ammonium salt anhydrate and a crystal of known NeuAc dihydrate, the degree of coloration when stored in a closed system at 60° C. was compared, and the results are shown in Table 8. The degree of coloration is expressed by transmittance T % 430 nm=100×10^−A (A=Abs: 430 nm, 1 cm), which was obtained by dissolving each crystal at 100 g/L in terms of an anhydrate and performing measurement for the solution.

[2] = Measurement of degree of solubility in water (HPLC of supernatant); type: physicochemical; details: FIG. 5; compared with crystal of known NeuAc dihydrate
Protocol: (2) Measurement of Degree of Solubility
A crystal of NeuAc ammonium salt anhydrate, or a crystal of known NeuAc dihydrate was added to water adjusted to the respective temperatures until each crystal remained undissolved and after keeping the solution for a sufficient time under stirring, the supernatant containing no crystal was collected, and the concentration of NeuAc therein was measured using the following HPLC conditions.
Guard column: Shodex SUGAR SH-G ϕ6.0×50 mm
Column: SUGAR SH1011 ϕ8.0×300 mm×2 columns in series
Column temperature: 60° C.
Buffer: an aqueous 0.005 mol/L sulfuric acid solution
Detector: UV detector (wavelength: 210 nm)
The degrees of solubility in water of the crystal of NeuAc ammonium salt anhydrate obtained above and a crystal of NeuAc dihydrate are illustrated in FIG. 5.

[3] = pH of aqueous solution of the crystal; type: physicochemical; details: aqueous solution at 100 g/L in terms of NeuAc ammonium salt
Protocol: As for the pH, an aqueous solution at 100 g/L in terms of NeuAc ammonium salt was measured.

[4] = Weight change (moisture absorption) under an atmosphere of 25° C. and a humidity of 60%; type: physicochemical; details: humidity 60%; for weight increase due to moisture absorption: up to 24 h
Protocol: With respect to the crystal of NeuAc ammonium salt anhydrate and the noncrystalline amorphous NeuAc ammonium salt acquired in Reference Example 1, the weight change under an atmosphere of 25° C. and a humidity of 60% was compared, and the results are shown in Table 5.

[5] = Stability under high temperature conditions judged from melting point; type: physicochemical; details: inferred from melting point 166.2° C. vs around 105° C. of known monohydrate
Protocol: (5) Measurement of Melting Point
The measurement was performed using Melting Point M-565 (manufactured by BUCHI) according to the instruction book.
In addition, the melting point of the crystal of NeuAc ammonium salt anhydrate is 166.2° C. and is higher than the melting point of around 105° C. of known NeuAc ammonium salt monohydrate salt.

[6] = cited from earlier work
[7] = normal temperature; cited from earlier work

- coloration during storage ([1]; closed system at 60° C., compared with crystal of known NeuAc dihydrate): extremely low
- Transmittance T % 430 nm ([1]; 0 days): 99.73%
- Transmittance T % 430 nm ([1]; 3 days): 98.87%
- Transmittance T % 430 nm ([1]; 6 days): 98.49%
- pH ([3]; listed as Example 1): 7.07
- pH ([3]; listed as Example 2): 6.60
- pH ([3]; listed as Example 3): 6.39
- Rate of weight change ([4]; elapsed time 0 h): 0.00%
- Rate of weight change ([4]; elapsed time 3 h): −0.08%
- Rate of weight change ([4]; elapsed time 7 h): −0.10%
- Rate of weight change ([4]; elapsed time 24 h): −0.06%
- weight increase due to moisture absorption ([4]; listed as crystal of NeuAc ammonium salt anhydrate): a weight increase was not observed
Structure (SMILES): CC(=O)N[C@H]1[C@H]([C@H](O)[C@H](O)CO)OC(O)(C(=O)O)C[C@@H]1O.N (stereo partly drawn) [Crystal of ammonium salt, ammonium N-acetylneuraminate anhydrate]
- degree of solubility in water [2]: large degree of solubility compared with the degree of solubility of the crystal of known NeuAc dihydrate
- stability under high temperature conditions [5]: stable even under high temperature conditions

- Transmittance T % 430 nm ([1]; 0 days): 100.1%
- Transmittance T % 430 nm ([1]; 3 days): 73.26%
- Transmittance T % 430 nm ([1]; 6 days): 50.46%
Structure (SMILES): CC(=O)N[C@H]1[C@H]([C@H](O)[C@H](O)CO)OC(O)(C(=O)O)C[C@@H]1O (stereo partly drawn) [Dihydrate crystal, N-Acetylneuraminic acid, reference compound]
- storage stability (discoloration of crystal and solution) [6]: gradually discolored to dark brown
- degree of solubility [7]: about 100 g/L

- Rate of weight change ([4]; elapsed time 3 h, ammonium salt): 6.58%
- Rate of weight change ([4]; elapsed time 7 h, ammonium salt): 10.4%
- Rate of weight change ([4]; elapsed time 24 h, ammonium salt): 13.5%
- deliquescence ([4]; when 24 hours had passed): deliquesced
Structure (SMILES): CC(=O)N[C@H]1[C@H]([C@H](O)[C@H](O)CO)OC(O)(C(=O)O)C[C@@H]1O.N (stereo partly drawn) [Noncrystalline amorphous, NeuAc ammonium salt, reference compound]
- weight increase due to moisture absorption ([4]; listed as noncrystalline amorphous NeuAc ammonium salt, ammonium salt): marked weight increase due to moisture absorption
